Results reported in patent publication US9428478B2, “Piperazine derivatives, compositions, and uses related thereto” (Emory University, priority 2011, dated 2016).
Values after ≈ are worked out from the molar mass of the structure shown. Each block holds one compound with its values, some of them ahead of it.

Tests used:
Nox2 [1] = target: T1, Nox2 (Homo sapiens (Human), UniProt P04839); test: Nox2 activity assay for primary screening (cell free, human neutrophil plasma membranes, LO12 luminescence); assay type: biochemical
Method: Nox2 activity assay for primary screening: Plasma membranes were prepared from human neutrophils, which express large amounts of Nox2, stored at −80 C until use. See Curnutte et al., J. Biol. Chem. 1987, 262, 6450-6452, hereby incorporated by reference. Membranes are mixed with recombinant, purified cytosolic regulatory proteins (p67Np47N chimera, and a constitutively active mutant of Rac, Rac1(Q61)) and FAD, along with varying concentrations of compound, and LO12, which emits light when it reacts with ROS. The reaction is initiated by addition of NADPH and SDS (an artificial activator of Nox2).
Target sequence in this assay (P04839 2-570): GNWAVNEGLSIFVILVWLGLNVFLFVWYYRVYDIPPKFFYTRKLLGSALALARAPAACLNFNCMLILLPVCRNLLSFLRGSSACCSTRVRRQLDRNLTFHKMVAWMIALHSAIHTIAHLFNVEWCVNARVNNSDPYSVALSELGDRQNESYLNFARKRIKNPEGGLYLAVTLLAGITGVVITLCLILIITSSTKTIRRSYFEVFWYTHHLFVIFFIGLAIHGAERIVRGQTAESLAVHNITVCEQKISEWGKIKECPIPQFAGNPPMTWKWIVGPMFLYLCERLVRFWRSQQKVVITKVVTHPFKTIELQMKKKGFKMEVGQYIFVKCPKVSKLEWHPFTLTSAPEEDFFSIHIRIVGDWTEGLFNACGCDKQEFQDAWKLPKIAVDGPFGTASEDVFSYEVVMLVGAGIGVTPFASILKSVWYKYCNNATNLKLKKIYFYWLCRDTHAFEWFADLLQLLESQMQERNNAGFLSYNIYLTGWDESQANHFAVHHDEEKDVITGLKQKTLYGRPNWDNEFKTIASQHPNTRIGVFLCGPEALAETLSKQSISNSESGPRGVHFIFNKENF

xanthine oxidase = xanthine oxidase (Homo sapiens (Human), UniProt P47989); test: Assay control: xanthine oxidase (XO) replaces Nox2 as the source of ROS, LO12 luminescence; assay type: biochemical; conditions: Table 2, xanthine oxidase control
xanthine oxidase, sequence (P47989 whole entry, species assumed): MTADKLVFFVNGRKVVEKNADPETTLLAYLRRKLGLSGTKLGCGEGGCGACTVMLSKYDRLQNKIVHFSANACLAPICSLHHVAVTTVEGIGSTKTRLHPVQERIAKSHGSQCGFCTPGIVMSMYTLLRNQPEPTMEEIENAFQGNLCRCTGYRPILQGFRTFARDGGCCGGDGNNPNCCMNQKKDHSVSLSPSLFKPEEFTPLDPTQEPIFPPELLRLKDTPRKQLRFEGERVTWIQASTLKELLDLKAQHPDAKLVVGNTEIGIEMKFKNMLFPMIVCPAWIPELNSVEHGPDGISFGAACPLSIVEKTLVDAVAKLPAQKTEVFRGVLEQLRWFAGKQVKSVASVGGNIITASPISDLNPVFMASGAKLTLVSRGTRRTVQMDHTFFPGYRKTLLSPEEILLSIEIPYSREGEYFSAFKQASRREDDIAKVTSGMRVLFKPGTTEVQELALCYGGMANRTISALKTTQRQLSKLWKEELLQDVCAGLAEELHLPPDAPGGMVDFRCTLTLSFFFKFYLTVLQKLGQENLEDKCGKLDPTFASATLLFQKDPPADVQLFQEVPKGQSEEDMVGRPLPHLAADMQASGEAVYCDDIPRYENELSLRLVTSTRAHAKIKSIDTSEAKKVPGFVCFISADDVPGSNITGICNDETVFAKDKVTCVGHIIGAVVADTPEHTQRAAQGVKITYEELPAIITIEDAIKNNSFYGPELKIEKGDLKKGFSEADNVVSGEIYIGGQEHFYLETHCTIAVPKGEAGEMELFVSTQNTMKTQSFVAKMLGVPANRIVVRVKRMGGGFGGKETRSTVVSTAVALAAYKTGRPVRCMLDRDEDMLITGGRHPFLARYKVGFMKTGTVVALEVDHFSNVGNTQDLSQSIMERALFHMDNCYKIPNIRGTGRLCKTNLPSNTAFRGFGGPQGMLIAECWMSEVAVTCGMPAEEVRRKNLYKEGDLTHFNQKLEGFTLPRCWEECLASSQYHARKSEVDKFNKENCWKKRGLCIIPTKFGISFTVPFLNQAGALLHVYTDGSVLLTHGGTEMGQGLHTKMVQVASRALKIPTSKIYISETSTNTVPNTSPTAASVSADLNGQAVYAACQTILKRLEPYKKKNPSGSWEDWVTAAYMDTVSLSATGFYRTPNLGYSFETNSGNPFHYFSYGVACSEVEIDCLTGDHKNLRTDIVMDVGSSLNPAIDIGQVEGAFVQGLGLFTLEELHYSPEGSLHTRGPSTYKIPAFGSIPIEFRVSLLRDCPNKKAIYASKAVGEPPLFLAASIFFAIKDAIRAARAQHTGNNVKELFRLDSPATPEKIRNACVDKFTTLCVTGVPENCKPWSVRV
Method: Assay controls. To rule out interference with either Nox2 or Nox4 luminescence assays, two approaches are used. In one, xanthine oxidase replaces the Nox2 enzymatic system as the source of ROS in the Nox2/LO12 assay. Xanthine is added to initiate the reaction and LO12 luminescence is recorded. In the other, exogenous H2O2 is supplied in place of the Nox4 expressing H2O2-generating cells and luminescence is recorded.

Nox5 = Nox5 (Homo sapiens (Human), UniProt Q96PH1); test: Nox5 inhibition; assay type: biochemical; conditions: Table 3
Nox5, sequence (Q96PH1 whole entry, species assumed): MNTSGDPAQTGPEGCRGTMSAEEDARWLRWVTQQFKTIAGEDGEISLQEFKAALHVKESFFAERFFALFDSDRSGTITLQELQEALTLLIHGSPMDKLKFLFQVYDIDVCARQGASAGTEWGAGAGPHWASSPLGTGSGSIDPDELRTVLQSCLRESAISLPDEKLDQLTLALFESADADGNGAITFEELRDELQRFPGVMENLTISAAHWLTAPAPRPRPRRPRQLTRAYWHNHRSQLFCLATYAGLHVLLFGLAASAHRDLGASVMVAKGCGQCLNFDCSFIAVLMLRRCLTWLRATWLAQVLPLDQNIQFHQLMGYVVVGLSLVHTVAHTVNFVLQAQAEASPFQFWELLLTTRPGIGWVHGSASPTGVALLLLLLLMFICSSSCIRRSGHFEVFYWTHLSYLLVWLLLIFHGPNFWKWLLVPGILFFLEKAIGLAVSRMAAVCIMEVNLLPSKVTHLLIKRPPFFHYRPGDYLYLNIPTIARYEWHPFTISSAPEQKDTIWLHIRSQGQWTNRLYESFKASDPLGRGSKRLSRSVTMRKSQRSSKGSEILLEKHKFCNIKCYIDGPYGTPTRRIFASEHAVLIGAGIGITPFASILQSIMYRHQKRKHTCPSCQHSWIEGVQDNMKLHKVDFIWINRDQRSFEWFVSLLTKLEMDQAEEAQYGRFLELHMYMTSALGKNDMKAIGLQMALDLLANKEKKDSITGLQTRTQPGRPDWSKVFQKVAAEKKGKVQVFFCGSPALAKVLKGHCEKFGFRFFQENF

Solubility = assay type: physicochemical
Nox2 [2] = target: T1, Nox2; test: Nox2 assay in human neutrophils (PMN), LO12 luminescence; assay type: cell-based
Method: (§1) Nox2 assay in human neutrophils: Human neutrophils were obtained from healthy volunteers (REF). LO12 luminescence was quantified as above. Nox4 assay using stably transfected HEK cell: HEK cells stably transfected with human Nox4 were incubated with varying concentrations of compound along with LO12.
Target sequence in this assay (P04839 whole entry, looked up): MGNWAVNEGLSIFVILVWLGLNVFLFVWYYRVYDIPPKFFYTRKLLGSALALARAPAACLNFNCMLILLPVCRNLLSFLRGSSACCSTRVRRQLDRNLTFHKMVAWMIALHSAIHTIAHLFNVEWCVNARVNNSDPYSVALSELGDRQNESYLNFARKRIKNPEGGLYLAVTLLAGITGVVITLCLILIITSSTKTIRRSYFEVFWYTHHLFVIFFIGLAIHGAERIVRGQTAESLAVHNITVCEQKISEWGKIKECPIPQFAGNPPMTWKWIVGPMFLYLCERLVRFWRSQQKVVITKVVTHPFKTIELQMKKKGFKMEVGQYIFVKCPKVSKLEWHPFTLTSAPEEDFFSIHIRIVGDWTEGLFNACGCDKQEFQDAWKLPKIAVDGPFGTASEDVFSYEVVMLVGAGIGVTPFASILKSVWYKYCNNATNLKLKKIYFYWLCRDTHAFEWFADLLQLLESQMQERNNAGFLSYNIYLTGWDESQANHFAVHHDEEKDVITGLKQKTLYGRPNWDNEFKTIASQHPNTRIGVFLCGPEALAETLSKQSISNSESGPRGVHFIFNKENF
Target sequence in this assay (P13498 whole entry partner, looked up): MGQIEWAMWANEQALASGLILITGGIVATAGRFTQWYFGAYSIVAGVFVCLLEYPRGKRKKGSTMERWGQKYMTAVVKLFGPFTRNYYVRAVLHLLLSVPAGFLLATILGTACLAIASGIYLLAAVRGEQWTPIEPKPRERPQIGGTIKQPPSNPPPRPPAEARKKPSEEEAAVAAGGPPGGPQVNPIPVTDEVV

Nox1 = Nox1 (Homo sapiens (Human), UniProt Q9Y5S8); test: Nox1 inhibition; assay type: biochemical; conditions: Table 3
Nox1, sequence (Q9Y5S8 whole entry, species assumed): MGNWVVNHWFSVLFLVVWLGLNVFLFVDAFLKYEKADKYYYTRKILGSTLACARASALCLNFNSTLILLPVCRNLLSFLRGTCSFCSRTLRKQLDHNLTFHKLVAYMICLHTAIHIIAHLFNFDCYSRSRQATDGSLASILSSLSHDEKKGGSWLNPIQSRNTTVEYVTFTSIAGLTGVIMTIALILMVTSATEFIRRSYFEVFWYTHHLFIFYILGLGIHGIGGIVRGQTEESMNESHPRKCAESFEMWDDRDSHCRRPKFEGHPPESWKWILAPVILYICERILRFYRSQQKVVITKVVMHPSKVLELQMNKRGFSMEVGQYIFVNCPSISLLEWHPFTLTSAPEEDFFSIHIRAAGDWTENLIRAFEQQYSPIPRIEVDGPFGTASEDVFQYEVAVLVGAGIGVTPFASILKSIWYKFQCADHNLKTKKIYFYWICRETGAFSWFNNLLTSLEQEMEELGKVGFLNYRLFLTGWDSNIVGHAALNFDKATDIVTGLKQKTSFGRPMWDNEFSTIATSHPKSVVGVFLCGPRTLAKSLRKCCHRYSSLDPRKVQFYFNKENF
Nox1, sequence (P13498 2-195 partner, species assumed): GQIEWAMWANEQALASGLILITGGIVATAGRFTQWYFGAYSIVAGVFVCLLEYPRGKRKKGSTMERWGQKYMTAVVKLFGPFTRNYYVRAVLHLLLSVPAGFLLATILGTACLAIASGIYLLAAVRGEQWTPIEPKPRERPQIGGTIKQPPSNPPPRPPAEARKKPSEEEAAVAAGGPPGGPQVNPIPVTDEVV

[3] = Stability in liver S9-fractions, dog; assay type: in vitro ADME; conditions: read-out: Stability in liver S9-fractions (t ½) Dog (converted)
[4] = Stability in liver S9-fractions, mouse; assay type: in vitro ADME; conditions: read-out: Stability in liver S9-fractions (t ½) Mouse (converted)
[5] = Stability in liver S9-fractions, human; assay type: in vitro ADME; conditions: read-out: Stability in liver S9-fractions (t ½) Human (converted)
human Nox4 = human Nox4 (Homo sapiens (Human), UniProt Q9NPH5); test: Nox4 assay using stably transfected HEK cells; assay type: cell-based
human Nox4, sequence (Q9NPH5 whole entry): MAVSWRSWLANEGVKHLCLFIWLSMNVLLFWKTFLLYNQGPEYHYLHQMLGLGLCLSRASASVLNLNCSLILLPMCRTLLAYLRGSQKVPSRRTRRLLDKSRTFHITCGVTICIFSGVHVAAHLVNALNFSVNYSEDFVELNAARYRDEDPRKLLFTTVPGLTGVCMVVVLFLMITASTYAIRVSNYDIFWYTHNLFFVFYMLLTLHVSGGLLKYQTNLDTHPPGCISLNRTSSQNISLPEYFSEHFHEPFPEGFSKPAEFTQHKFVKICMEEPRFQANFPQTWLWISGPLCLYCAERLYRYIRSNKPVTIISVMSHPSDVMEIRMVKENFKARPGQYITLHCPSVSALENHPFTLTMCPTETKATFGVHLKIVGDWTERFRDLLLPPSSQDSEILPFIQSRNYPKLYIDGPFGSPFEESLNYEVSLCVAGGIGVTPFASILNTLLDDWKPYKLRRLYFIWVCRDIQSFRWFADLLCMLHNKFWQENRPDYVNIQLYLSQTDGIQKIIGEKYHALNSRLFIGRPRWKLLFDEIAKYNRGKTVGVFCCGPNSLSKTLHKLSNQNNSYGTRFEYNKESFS
human Nox4, sequence (P13498 2-195 partner): as the sequence (P13498 2-195 partner, species assumed) above
Method: as §1
Nox4 produces hydrogen peroxide rather than superoxide; under these conditions LO12 luminesces only after the addition of horseradish peroxidase to initiate the reaction.

[6] = Table 3, read-out: Nox2 (Cell Free)
[7] = Table 3, human neutrophils, read-out: Nox2 (PMN)

SMILES: O=C(c1nc2cc(F)ccc2[nH]1)N1CCN(c2ccc(OC(F)(F)F)cc2)CC1 [TG6-206]
- IC50 Nox2 (Nox2 [1]; Table 2): Not active

SMILES: COc1ccc(N2CCN(C(=O)c3cc4cc(OC)ccc4[nH]3)CC2)cc1 [TG6-179-2]
- IC50 (Nox2 [1]; Table 2, read-out: IC50 Nox2): 500 nM

SMILES: COc1ccc(N2CCN(C(=O)c3nc4cc(F)ccc4[nH]3)CC2)cc1 [TG6-179-3, (5-fluoro-1H-benzo[d]imidazol-2-yl)(4-(4-methoxyphenyl)piperazin-1-yl)methanone]
- IC50 (Nox2 [1]; Table 2, read-out: IC50 Nox2): 700 nM
- IC50 (Nox2 [1]; [6]): 1000 nM
- half-life [3]: 4 h
- half-life [4]: 5 h
- half-life [5]: 1 h
- solubility (Solubility): < 25 µM
- IC50 (Nox2 [2]; [7]): 400 nM
- IC50 (Nox1): 600 nM
- IC50 (xanthine oxidase): > 20000 nM

SMILES: O=C(c1cc2cc(O)ccc2[nH]1)N1CCN(c2ccc(OC(F)(F)F)cc2)CC1 [TG6-205-2]
- IC50 (Nox2 [1]; Table 2, read-out: IC50 Nox2): 1500 nM
- IC50 (xanthine oxidase): 200 nM

SMILES: COc1ccc(N2CCN(C(=O)c3cc4cc(Br)ccc4[nH]3)CC2)cc1 [TG6-203]
- inhibition at 0.3 µM (Nox2 [1]): 30%

SMILES: COc1ccc(N2CCN(C(=O)c3cc4cc(C(C)=O)ccc4[nH]3)CC2)cc1 [TG6-161, 1-(2-(4-(4-methoxyphenyl)piperazine-1-carbonyl)-1H-indol-5-yl)ethanone]
- IC50 (Nox2 [1]; Table 2, read-out: IC50 Nox2): 400 nM
- IC50 (Nox2 [1]; [6]): 300 nM
- IC50 (Nox2 [1]; read-out: IC50, Nox2 cell free system): 200 to 300 nM
- selectivity for Nox2 compared with Nox4 (human Nox4): ≥ 100 fold
- IC50 (human Nox4; using two different assays): 20000 to 30000 nM
- half-life [3]: 2 h
- half-life [4]: 3 h
- half-life [5]: 0.75 h
- solubility (Solubility): < 25 µM
- IC50 (Nox2 [2]; [7]): 200 nM
- IC50 (Nox2 [2]; read-out: IC50, ROS production in human neutrophils): 200 to 300 nM
- IC50 (Nox1): 600 nM
- IC50 (xanthine oxidase): > 20000 nM

SMILES: COc1ccc(N2CCN(C(=O)c3cnc4ccc(F)cc4c3O)CC2)cc1 [TG6-191]
- IC50 (Nox2 [1]; Table 2, read-out: IC50 Nox2): 1500 nM

SMILES: COc1ccc(N2CCN(C(=O)c3cc4cc(O)ccc4[nH]3)CC2)cc1 [TG6-199]
- IC50 (Nox2 [1]; Table 2, read-out: IC50 Nox2): 500 nM
- IC50 (xanthine oxidase): < 100 nM

Other lines, results leading:

- inhibition at 2.5 µM (Nox2 [1]): 40%
SMILES: COc1ccc(N2CCN(C(=O)[C@H]3Cc4ccccc4N3)CC2)cc1 [TG6-214]

- IC50 (Nox2 [1]; Table 2, read-out: IC50 Nox2): 800 nM
- IC50 (xanthine oxidase): ≥ 20000 nM
SMILES: CCOc1ccc(N2CCN(C(=O)c3cc4cc(C(C)=O)ccc4[nH]3)CC2)cc1 [TG6-238]

- IC50 (Nox2 [1]; Table 2, read-out: IC50 Nox2): 1000 nM
- IC50 (xanthine oxidase): ≥ 20000 nM
SMILES: CC(C)Oc1ccc(N2CCN(C(=O)c3nc4cc(C(N)=O)ccc4[nH]3)CC2)cc1 [TG6-251-1]

- IC50 (Nox2 [1]; Table 2, read-out: IC50 Nox2): 3000 nM
SMILES: COc1ccc(N2CCN(C(=O)c3cc4cc(C(C)=O)ccc4[nH]3)CC2)cc1F [TG6-252]

- IC50 (Nox2 [1]; [6]): 700 nM
- IC50 (Nox5): 600 nM
- solubility (Solubility): 250 µM (≈ 120 µg/mL)
- IC50 (Nox2 [2]; [7]): 200 nM
- IC50 (Nox1): 500 nM
SMILES: COc1ccc(N2CCN(C(=O)c3[nH]c4ccc(F)cc4c3CNC3CCN(C)CC3)CC2)cc1 [TG7-32, (5-fluoro-3-(((1-methylpiperidin-4-yl)amino)methyl)-1H-indol-2-yl)(4-(4-methoxyphenyl)piperazin-1-yl)methanone]

- IC50 (Nox2 [1]; Table 2, read-out: IC50 Nox2): 1000 nM
- IC50 (xanthine oxidase): ≥ 20000 nM
SMILES: COc1ccc(N2CCN(C(=O)c3cnc4cc(C(C)=O)ccc4c3O)CC2)cc1 [TG6-239]

- IC50 (Nox2 [1]; Table 2, read-out: IC50 Nox2): 500 nM
- IC50 (xanthine oxidase): > 20000 nM
SMILES: CNC(=O)c1ccc2[nH]c(C(=O)N3CCN(c4ccc(OC)cc4)CC3)cc2c1 [TG6-223]

- IC50 (Nox2 [1]; Table 2, read-out: IC50 Nox2): 800 nM
SMILES: CCOc1ccc(N2CCN(C(=O)c3nc4cc(F)ccc4[nH]3)CC2)cc1 [TG6-242]

- IC50 (Nox2 [1]; [6]): 800 nM
- IC50 (Nox5): 800 nM
- solubility (Solubility): 250 µM (≈ 120 µg/mL)
- IC50 (Nox2 [2]; [7]): 700 nM
- IC50 (Nox1): 400 nM
SMILES: CCN1CCN(Cc2c(C(=O)N3CCN(c4ccc(OC)cc4)CC3)[nH]c3ccc(F)cc23)CC1 [TG7-33, (3-((4-ethylpiperazin-1-yl)methyl)-5-fluoro-1H-indol-2-yl)(4-(4-methoxyphenyl)piperazin-1-yl)methanone]

- IC50 (Nox2 [1]; [6]): 700 nM
- IC50 (Nox5): 600 nM
- solubility (Solubility): 270 µM
- IC50 (Nox2 [2]; [7]): 500 nM
- IC50 (Nox1): 600 nM
SMILES: CCN(CC)Cc1c(C(=O)N2CCN(c3ccc(OC)cc3)CC2)[nH]c2ccc(F)cc12.Cl [TG7-34, (3-((diethylamino)methyl)-5-fluoro-1H-indol-2-yl)(4-(4-methoxyphenyl)piperazin-1-yl)methanone]

- IC50 (Nox2 [1]; Table 2, read-out: IC50 Nox2): 10000 nM
SMILES: CNC(=O)c1ccc2[nH]c(C(=O)N3CCN(c4ccc(OC)c(F)c4)CC3)cc2c1 [TG6-254-2]
